One test concerns the target T1, HLA-A2 (Homo sapiens, UniProt P04439, D140Y/D185E/D98H/E176V/E277Q/G131W/G231S/I119V/I121R/I166T/I218V/L300P/L318F/N151K/N90K/P208A/P217A/Q86G/Q94H/R138H/R169H/T345S).
T1 construct: The HLA-A2 stabilization assay was performed using T2 cells; endogenous in cells; host or cells: T2 cells (LCLxT lymphoblastoid hybrid cell line 0.1743CEM.T2)
Nature of the test: HLA-A2 stabilization assay using T2 cells. It is filed as binding.

The subject of a further test is CD8+ T cells. Briefly: Enrichment of epitope-specific CD8 T cells from healthy donors, epitope-specific IFNg production (ELISA). It is filed as cell-based, human. Particulars: positive co-cultures / co-cultures tested. On the procedure:
Enrichment of epitope-specific CD8 T cells was performed according to the protocol described by Butler et al., Clin Cancer Res.;13(6):1857-1867 (2007), doi:10.1158/1078-0432, but included the following amendments. CD8+ T lymphocytes were collected from PBMCs by magnetic-activated cell sorting (MACS) according to the CD8 isolation kit (Miltenyi Biotec). CD8+ T cells with >95% purity were subsequently cultured in T cell medium supplemented with IL-2 (36 IU/mL; but no gentamycin) for 1 day, after which expansion cycles started. K562ABC cells (kindly provided by prof. Bruce Levine, University of Pennsylvania, PA) were loaded with 10 μg/ml ROPN1 and/or ROPN1B peptide and incubated for 5 h at RT in serum-free medium, after which cells were washed and fixed with 0,1% paraformaldehyde. After washing, K562ABC cells were suspended at 0.1×10^6/mL and co-cultured with T cells in a 1:20 ratio. IL-2 (36 IU/mL) and IL-15 ([…]) were added at days 1 and 3 days after start of co-culture, and after 6 days, T cells were counted, suspended at 2×10^6/mL and rested for 1 day, after which the next cycle commenced (this schedule continued up to 4 or 5 cycles). Following 4 and 5 cycles, T cells were stained with pMHC multimers (HLA*0201/MLN, Immudex, Copenhagen, Denmark). pMHC-PE were pre-incubated at RT for 10 min followed by incubation with 7AAD, anti-CD3-FITC and anti-CD8-APC for 20 min. Cells were fixed with 1% paraformaldehyde and TCR expression was measured with flow cytometry and analyzed using FlowJoX software. FIG. 4A schematically depicts the procedure to enrich epitope-specific T cells, and obtainthe corresponding TCR genes.
Enriched T cells were tested for ROPN1 and/or ROPN1B epitope-specific IFNY production. To this end, T2 cells (4×10^6/mL) were loaded with peptide (20 ng/mL) for 30 min. T cells (2×10^5) were cultured in a 1:1 ratio with T2 cells in a round bottom 96-wells plate, and the next day supernatant was collected and IFN-γ production was measured with an Enzyme-linked immunosorbent assay (ELISA, Invitrogen) according to manufacturer's protocol (FIG. 4B). T2 cells without peptide were included as a negative control; and staphylococcal enterotoxin B (0.1 μg, Sigma) was used as a positive control.
Enrichment of epitope-specific T cells was performed by co-culturing naïve T cells with CD11c-positive cells that were loaded with peptide. PBMCs were passed through a cell strainer (70 μm) and used for the isolation of naïve T cells and CD11c cells. To isolate CD11c-positive cells (typically dendritic cells, DC), PBMCs were stained for 10 mM at 4° C. with Fc block (10 μL/10^7 PBMCs, BD Pharmingen, Vianen, the Netherlands), after which cells were stained with CD11c-PE antibody (10 μL/10^7 PBMCs, BD Pharmingen) for 30 mM at 4° C., washed, and incubated with PE beads (10 μL/10^7 PBMCs, Miltenyi Biotech, Bergisch Gladbach, Germany) for another […] at 4° C. After washing, cells were dissolved in magnetic-activated cell sorting (MACS) buffer and passed through a MACS LS column (Miltenyi Biotec) to positively select CD11c cells. After selection, CD11c cells were irradiated with 30 Gy, and cultured overnight in a 24-wells plate (1×10^6/mL) in RPMI medium supplemented with 1% human serum (Sanquin), 1% antibiotics, […] L-glutamine, a DC maturation cocktail (a mixture of GM-CSF (10 ng/mL, ImmunoTools, Germany), IL-4 (10 ng/mL, ImmunoTools), LPS (100 ng/mL, Invitrogen, Goteborg, Sweden) and IFNY (10 ng/mL, Preprotech, London, United Kingdom)), as well as peptide (10 pg/mL). Naïve T cells were isolated with use of the Naïve T Cell isolation kit (Miltenyi Biotec) according to the manufacturer's protocol, and suspended in RPMI medium supplemented with 5% human serum (Sanquin), 1% antibiotics, […] L-glutamine and IL-7 (5 ng/mL, BD Pharmingen). The run-through of the naïve T cell selection was frozen down and used for re-stimulation of epitope-specific T cells. […]
(ELISA stands for enzyme-linked immunosorbent assay.)

Setting [1] is: Table 2 (Example 1), EC50 of peptide titration on T2 cells, read-out: Affinity for HLA A2:01.
[2] abbreviates: Table 4 (Examples 1 and 2), EC50 of peptide titration on T2 cells, read-out: Affinity for HLA.A2.01.
Setting [3] is: Table 2 (Example 1), healthy donor T cells.

Each structure is given as a SMILES string. Where two headings read alike, the source gives them in different places. Peptide text beside a SMILES is read from it.

Regarding `CSCC[C@H](NC(=O)[C@H](CCC(N)=O)NC(=O)[C@H](C)N)C(=O)N[C@@H](Cc1c[nH]c2ccccc12)C(=O)N[C@@H](CCCCN)C(=O)N[C@H](C(=O)N[C@H](C(=O)N[C@@H](CC(N)=O)C(=O)N[C@@H](CC(C)C)C(=O)O)C(C)C)C(C)C` (H-AQMWKVVNL-OH; N-terminus and C-terminus assumed), the figures for the EC50 on HLA-A2 (setting [1]) and on HLA-A2 (setting [2]) were 11.4 µM and 10.5 µM, respectively. Besides, the “T cell responses observed (IFNg) against epitope” value (from here on “T cell responses observed (IFNg)”) in the test on CD8+ T cells (Table 4) was 2/2 co-cultures.
In the case of `CC[C@H](C)[C@H](NC(=O)[C@H](Cc1ccc(O)cc1)NC(=O)[C@@H](NC(=O)[C@H](Cc1ccc(O)cc1)NC(=O)[C@H](CC(C)C)NC(=O)[C@@H](N)Cc1ccccc1)[C@@H](C)O)C(=O)N[C@@H](C)C(=O)N[C@@H](CCC(=O)O)C(=O)N[C@H](C(=O)O)C(C)C` (H-FLYTYIAEV-OH; N-terminus and C-terminus assumed), the EC50 at HLA-A2 (setting [2]) turned out to be 21.1 µM. For the same molecule, the “T cell responses observed (IFNg)” value in the test on CD8+ T cells (Table 4) is reported as 2/2 co-cultures.
As to `CC[C@H](C)[C@H](NC(=O)[C@H](Cc1ccc(O)cc1)NC(=O)[C@@H](NC(=O)[C@H](Cc1ccc(O)cc1)NC(=O)[C@H](CC(C)C)NC(=O)[C@@H](N)Cc1ccccc1)[C@@H](C)O)C(=O)N[C@@H](C)C(=O)N[C@@H](CCCCN)C(=O)N[C@H](C(=O)O)C(C)C` (H-FLYTYIAKV-OH; N-terminus and C-terminus assumed), the results for the EC50 at HLA-A2 (setting [1]) and at HLA-A2 (setting [2]) were 10.9 µM and 8.11 µM, respectively. In addition, the “T cell responses observed (IFNg)” value in the test with CD8+ T cells (setting [3]) and with CD8+ T cells (Table 4) was 1/4 co-cultures throughout.
Take `CC[C@H](C)[C@H](NC(=O)[C@H](Cc1ccc(O)cc1)NC(=O)[C@H](CC(N)=O)NC(=O)[C@H](CC(C)C)NC(=O)[C@@H](N)CCSC)C(=O)N[C@@H](CCC(=O)O)C(=O)N[C@@H](CCC(N)=O)C(=O)N[C@@H](CCC(=O)O)C(=O)N[C@H](C(=O)O)C(C)C` (H-MLNYIEQEV-OH; N-terminus and C-terminus assumed): the EC50 on HLA-A2 (Example 1, top-ranked epitopes, read-out: EC50 (HLA-A2 binding)) is 6.6 µM; at HLA-A2 (setting [1]), 6.56 µM; on HLA-A2 (setting [2]), 4.82 µM. Also, the “T cell responses observed (IFNg)” value in the test with CD8+ T cells (setting [3]) and in the test with CD8+ T cells (Table 4) was 1/3 co-cultures in each case.
